Ten compounds from US4311699A, “Aminoacid derivatives of cephalosporin compounds” (priority 1980, dated 1982) can be followed below.

What all share (assay): in vitro antibacterial activity, minimal inhibitory concentration
Common to all, as to assay type: cell-based

One assay has as its system E. coli Vogel. Conditions: for MIC: Escherichia coli. The text has this:
(§1) The compounds of the invention are new chemical compounds that are used as pharmacological agents and especially as broad spectrum antibacterial agents. They are active in vitro against strains of both gram-positive and gram-negative bacteria.
(§2) Minimal Inhibitory Concentration (μg/ml)

Another assay concerns Pseudomonas #28. To be noted: Pseudomonas #28, in vitro; read-out: Minimal Inhibitory Concentration.
From the text: as §1, §2

The test system of a further assay is Klebs. pneu.
From the text: as §1, §2

A further assay deals with Pseudomonas UI 18. Conditions: UI18; Pseudomonas UI 18, in vitro.
From the text: as §1, §2

The test system of the next assay is Staph. aureus UC-76. To be noted: Staph. aureus UC-76, in vitro; for MIC: Staphylococcus aureus, UC76.
From the text: as §1, §2

Another assay has as its system Staph. aureus S18733. Conditions: for MIC: Staphylococcus aureus.
From the text: as §1, §2

In the next assay the test system is Entero. cloacae. Conditions: for MIC: Enterobacter cloacae.
From the text: as §1, §2

The test system of the next assay is Strep. fec.
From the text: as §1, §2

For another assay, the system named is E. coli Brig. Conditions: for MIC: Escherichia coli.
From the text: as §1, §2

A further assay deals with Pseudomonas BRK 12-4-4. To be noted: Pseudomonas BRK 12-4-4, in vitro; for MIC: BRK1244.
From the text: as §1, §2

In another assay the test system is Prot. vulg.
From the text: as §1, §2

A further assay has as its system Serr. marces.
From the text: as §1, §2

Converted amounts (≈) assume the structure as drawn. Some results are limits rather than exact numbers.

Turning to `CC(=O)OCC1=C(C(=O)O)N2C(=O)[C@@H](NC(=O)[C@H](NC(=O)c3cnc(-c4ccc(NC(=O)C5CCCN5C(C)=O)cc4)nc3O)c3ccccc3)[C@H]2SC1` (mixture of isomers) [Example 13, N-[2-[4-(N-Acetyl-DL-prolylamino)phenyl]-4-hydroxy-5-pyrimidinylcarbonyl]-7-[D-2-amino-2-phenylacetamido]-3-acetoxy-methyl-3-cephem-4-carboxylic acid], the MIC was determined as 12.5 µg/mL in the assay on E. coli Vogel; 6.3 µg/mL with Pseudomonas #28; 25 µg/mL against Klebs. pneu.; 12.5 µg/mL in the assay on Pseudomonas UI 18; 3.1 µg/mL in the assay on Staph. aureus UC-76; 6.3 µg/mL against Staph. aureus S18733. Besides, the MIC against Entero. cloacae is 50 µg/mL; with Strep. fec. it was 50 µg/mL; in the assay on E. coli Brig it was 50 µg/mL; in the assay on Pseudomonas BRK 12-4-4, 12.5 µg/mL; against Prot. vulg., 50 µg/mL; in the assay with Serr. marces., above 50 µg/mL.

On to `CC(=O)NCC(=O)Nc1ccc(-c2ncc(C(=O)N[C@@H](C(=O)NC3C(=O)N4C(C(=O)O)=C(CSc5nnc(C)s5)CSC34)c3ccccc3)c(O)n2)cc1` (stereo partly drawn) [Example 39, N-[2-[4-(N-Acetylglycylamino)phenyl]-4-hydroxy-5-pyrimidinylcarbonyl]-7-[D-2-amino-2-phenylacetamido]-3-[[(5-methyl-1,3,4-thiadiazol-2-yl)thio]methyl]-3-cephem-4-carboxylic acid], for which the MIC was 1.6 µg/mL (≈ 2.03 µM) against E. coli Vogel; 12.5 µg/mL (≈ 15.8 µM) with Pseudomonas #28; 1.6 µg/mL (≈ 2.03 µM) in the assay with Klebs. pneu.; 25 µg/mL (≈ 31.7 µM) against Pseudomonas UI 18; 0.8 µg/mL (≈ 1.01 µM) in the assay with Staph. aureus UC-76; 3.1 µg/mL (≈ 3.92 µM) in the assay on Staph. aureus S18733. In addition, the MIC in the assay on Entero. cloacae was found to be 6.3 µg/mL (≈ 7.98 µM); in the assay on Strep. fec., 50 µg/mL (≈ 63.3 µM); against E. coli Brig, 12.5 µg/mL (≈ 15.8 µM); against Pseudomonas BRK 12-4-4 it was 25 µg/mL (≈ 31.7 µM); with Prot. vulg. it was 6.3 µg/mL (≈ 7.98 µM); with Serr. marces. it was 50 µg/mL (≈ 63.3 µM).

With `CC(=O)NCCCC(=O)Nc1ccc(-c2ncc(C(=O)N[C@@H](C(=O)N[C@@H]3C(=O)N4C(C(=O)O)=C(COC(C)=O)CS[C@H]34)c3ccccc3)c(O)n2)cc1` [Example 16, N-[2-[4-(N-Acetyl-γ-aminobutyrylamino)phenyl]-4-hydroxy-5-pyrimidinylcarbonyl]-7-[D-2-amino-2-phenylacetamido]-3-acetoxy-methyl-3-cephem-4-carboxylic acid], the MIC in the assay on E. coli Vogel amounted to 6.3 µg/mL (≈ 8.45 µM); in the assay on Pseudomonas #28, 6.3 µg/mL (≈ 8.45 µM); with Klebs. pneu. it was 12.5 µg/mL (≈ 16.8 µM); in the assay on Pseudomonas UI 18, 12.5 µg/mL (≈ 16.8 µM); in the assay with Staph. aureus UC-76, 0.8 µg/mL (≈ 1.07 µM); against Staph. aureus S18733, 3.1 µg/mL (≈ 4.16 µM). Moreover, the MIC against Entero. cloacae was 25 µg/mL (≈ 33.5 µM); against Strep. fec., 25 µg/mL (≈ 33.5 µM); with E. coli Brig, 50 µg/mL (≈ 67 µM); with Pseudomonas BRK 12-4-4, 12.5 µg/mL (≈ 16.8 µM); against Prot. vulg., 25 µg/mL (≈ 33.5 µM); against Serr. marces., above 50 µg/mL.

As to `O=C(O)Cn1nnnc1SCC1=C(C(=O)O)N2C(=O)C(NC(=O)[C@H](NC(=O)c3cnc(-c4ccc(NC(=O)CN5CCCC5=O)cc4)nc3O)c3ccccc3)C2SC1` (some centres unmarked) [Example 42], the MIC turned out to be 3.1 µg/mL (≈ 3.67 µM) against E. coli Vogel; 6.3 µg/mL (≈ 7.47 µM) with Pseudomonas #28; 3.1 µg/mL (≈ 3.67 µM) in the assay on Klebs. pneu.; 6.3 µg/mL (≈ 7.47 µM) against Pseudomonas UI 18; 12.5 µg/mL (≈ 14.8 µM) in the assay with Staph. aureus UC-76; 25 µg/mL (≈ 29.6 µM) against Staph. aureus S18733. Further, the MIC is 6.3 µg/mL (≈ 7.47 µM) in the assay on Entero. cloacae; above 50 µg/mL against Strep. fec.; 6.3 µg/mL (≈ 7.47 µM) against E. coli Brig; 12.5 µg/mL (≈ 14.8 µM) in the assay on Pseudomonas BRK 12-4-4; 1.6 µg/mL (≈ 1.9 µM) in the assay on Prot. vulg.; 50 µg/mL (≈ 59.3 µM) against Serr. marces..

Take `CC(=O)NC(C)C(=O)Nc1ccc(-c2ncc(C(=O)N[C@@H](C(=O)N[C@@H]3C(=O)N4C(C(=O)O)=C(COC(C)=O)CS[C@H]34)c3ccccc3)c(O)n2)cc1` (mixture of isomers) [Example 8, N-[2-[4-(N-Acetyl-DL-alanylamino)phenyl]-4-hydroxy-5-pyrimidinylcarbonyl]-7-[D-2-amino-2-phenylacetamido]-3-acetoxymethyl-3-cephem-4-carboxylic acid]: the MIC against E. coli Vogel was found to be 6.3 µg/mL; in the assay on Pseudomonas #28, 6.3 µg/mL; in the assay on Klebs. pneu., 6.3 µg/mL; in the assay on Pseudomonas UI 18, 6.3 µg/mL; in the assay on Staph. aureus UC-76, 1.6 µg/mL; with Staph. aureus S18733 it was 1.6 µg/mL. The MIC was 50 µg/mL with Entero. cloacae; 50 µg/mL against Strep. fec.; 25 µg/mL against E. coli Brig; 12.5 µg/mL against Pseudomonas BRK 12-4-4; 50 µg/mL in the assay on Prot. vulg.; above 50 µg/mL against Serr. marces..

Regarding `CC(=O)NC(C)(C)C(=O)Nc1ccc(-c2ncc(C(=O)N[C@@H](C(=O)N[C@@H]3C(=O)N4C(C(=O)O)=C(COC(C)=O)CS[C@H]34)c3ccccc3)c(O)n2)cc1` [Example 2, N-[2-[4-(N-Acetyl-alpha-aminoisobutyrylamino)phenyl)-4-hydroxy-5-pyrimidinylcarbonyl]-7-[D-2-amino-2-phenylacetamido]-3-acetoxymethyl-3-cephem-4-carboxylic acid], the MIC in the assay with E. coli Vogel was 25 µg/mL (≈ 33.5 µM); in the assay with Pseudomonas #28, 1.6 µg/mL (≈ 2.15 µM); with Klebs. pneu. it was 25 µg/mL (≈ 33.5 µM); against Pseudomonas UI 18 it was 3.1 µg/mL (≈ 4.16 µM); against Staph. aureus UC-76, 3.1 µg/mL (≈ 4.16 µM); against Staph. aureus S18733, 12.5 µg/mL (≈ 16.8 µM). Also, the MIC against Entero. cloacae is 50 µg/mL (≈ 67 µM); against Strep. fec., above 50 µg/mL; in the assay with E. coli Brig it was 50 µg/mL (≈ 67 µM); in the assay on Pseudomonas BRK 12-4-4, 6.3 µg/mL (≈ 8.45 µM); with Prot. vulg., 25 µg/mL (≈ 33.5 µM); in the assay on Serr. marces., above 50 µg/mL.

Regarding `CC(=O)N[C@H](C)C(=O)Nc1ccc(-c2ncc(C(=O)N[C@@H](C(=O)NC3C(=O)N4C(C(=O)O)=C(CSc5nnnn5CC(=O)O)CSC34)c3ccccc3)c(O)n2)cc1` (stereo partly drawn) [Example 34, N-[2-[4-(N-Acetyl-D-alanylamino)phenyl]-4-hydroxy-5-pyrimidinylcarbonyl]-7-[D-2-amino-2-phenylacetamido]-3-[[(1-carboxymethyl-1H-tetrazol-5-yl)thio]methyl]-3-cephem-4-carboxylic acid], the MIC in the assay with E. coli Vogel was 3.1 µg/mL (≈ 3.73 µM); in the assay with Pseudomonas #28 it was 12.5 µg/mL (≈ 15 µM); against Klebs. pneu., 6.3 µg/mL (≈ 7.57 µM); in the assay on Pseudomonas UI 18 it was 12.5 µg/mL (≈ 15 µM); in the assay with Staph. aureus UC-76 it was 12.5 µg/mL (≈ 15 µM); against Staph. aureus S18733 it was 25 µg/mL (≈ 30.1 µM). The MIC against Entero. cloacae is 12.5 µg/mL (≈ 15 µM); with Strep. fec., above 50 µg/mL; in the assay on E. coli Brig, 12.5 µg/mL (≈ 15 µM); in the assay with Pseudomonas BRK 12-4-4, 12.5 µg/mL (≈ 15 µM); in the assay on Prot. vulg., 1.6 µg/mL (≈ 1.92 µM); in the assay on Serr. marces., above 50 µg/mL.

Regarding `CC(=O)N[C@H](C)C(=O)Nc1ccc(-c2ncc(C(=O)N[C@@H](C(=O)NC3C(=O)N4C(C(=O)O)=C(CSc5nnnn5C)CSC34)c3ccc(O)cc3)c(O)n2)cc1` (stereo partly drawn) [Example 31, N-[2[4-(N-Acetyl-D-alanylamino)phenyl]-4-hydroxy-5-pyrimidinyl-carbonyl]-7-[D-2-amino-2-(4-hydroxyphenyl)acetamido]-3-[[(1-methyl-1H-tetrazol-5-yl)thiol]methyl]-3-cephem-4-carboxylic acid], the MIC against E. coli Vogel was 1.6 µg/mL (≈ 1.99 µM); in the assay on Pseudomonas #28, 3.1 µg/mL (≈ 3.86 µM); in the assay with Klebs. pneu. it was 1.6 µg/mL (≈ 1.99 µM); in the assay on Pseudomonas UI 18 it was 3.1 µg/mL (≈ 3.86 µM); in the assay on Staph. aureus UC-76 it was 3.1 µg/mL (≈ 3.86 µM); in the assay on Staph. aureus S18733 it was 6.3 µg/mL (≈ 7.84 µM). Further, the MIC in the assay with Entero. cloacae came out at 6.3 µg/mL (≈ 7.84 µM); with Strep. fec. it was 25 µg/mL (≈ 31.1 µM); against E. coli Brig it was 6.3 µg/mL (≈ 7.84 µM); against Pseudomonas BRK 12-4-4, 3.1 µg/mL (≈ 3.86 µM); against Prot. vulg. it was 6.3 µg/mL (≈ 7.84 µM); with Serr. marces. it was 50 µg/mL (≈ 62.2 µM).

Take `CC(=O)NCC(=O)Nc1ccc(-c2ncc(C(=O)N[C@@H](C(=O)N[C@@H]3C(=O)N4C(C(=O)O)=C(COC(C)=O)CS[C@H]34)c3ccccc3)c(O)n2)cc1` [Example 7, N-[2-[4-(N-Acetylglycylamino)phenyl]-4-hydroxy-5-pyrimidinylcarbonyl]-7-[D-2-amino-2-phenylacetamido]-3-acetoxymethyl-3-cephem-4-carboxylic acid]: the MIC against Klebs. pneu. worked out at 6.3 µg/mL (≈ 8.78 µM); against Pseudomonas UI 18, 12.5 µg/mL (≈ 17.4 µM); in the assay on Entero. cloacae, 25 µg/mL (≈ 34.8 µM); against Strep. fec., 50 µg/mL (≈ 69.7 µM).

As for `CC(=O)N1C[C@H](O)C[C@H]1C(=O)Nc1ccc(-c2ncc(C(=O)N[C@@H](C(=O)NC3C(=O)N4C(C(=O)O)=C(CSc5nnnn5CC(=O)O)CS[C@H]34)c3ccccc3)c(O)n2)cc1` (stereo partly drawn) [Example 36, N-[2-[4-(N-Acetyl-L-hydroxyprolylamino)phenyl]-4-hydroxy-5-pyrimidinylcarbonyl]-7-[D-2-amino-2-phenylacetamido]-3-[[(1-carboxymethyl-1H-tetrazol-5-yl)thio]methyl]-3-cephem-4-carboxylic acid], the “Minimal Inhibitory Concentration” value in the assay on E. coli Vogel is 6.3 µg/mL; in the assay on Klebs. pneu., 6.3 µg/mL; with Staph. aureus UC-76, 12.5 µg/mL; in the assay on Staph. aureus S18733 it was 25 µg/mL; in the assay on Entero. cloacae, 12.5 µg/mL; with Strep. fec., above 50 µg/mL. The “Minimal Inhibitory Concentration” value amounted to 12.5 µg/mL in the assay on E. coli Brig, 12.5 µg/mL in the assay with Pseudomonas BRK 12-4-4, 6.3 µg/mL in the assay with Prot. vulg. and 50 µg/mL in the assay with Serr. marces..
